Measured values taken from patent US11318119B2 (Gilead Sciences, Inc., priority 2019, dated 2022).
pEC50, pIC50: −log10 of the molar value. Like-named read-outs stand apart in the source and are kept apart here.

Assays:
[1] = tested on: HIV-1 (IIIB) in MT-4 cells; experiment: MT-4 HIV Assay (inhibition of HIV-1 replication, Cell Titer Glo readout); type: cell-based; details: Human immunodeficiency virus 1, MT4, 120 h, 5 days incubation
Description: (§1) Compounds were tested in a high-throughput 384-well assay format for their ability to inhibit the replication of HIV-1 (IIIB) in MT-4 cells. Compounds were serially diluted (1:3) in DMSO on 384-well polypropylene plates and further diluted 200-fold into complete RPMI media (10% FBS, 1% P/S) using the Biotek Micro Flow and Agilent ECHO acoustic dispenser. Each plate contained up to 8 test compounds, with negative (No Drug Control) and 5 uM AZT positive controls. MT-4 cells were pre-infected with 10 uL of either RPMI (mock-infected) or a fresh 1:250 dilution of an HIV-1 (IIIB) concentrated virus stock. Infected and uninfected MT-4 cells were further diluted in complete RPMI media and added to each plate using a Micro Flow dispenser. After 5 days incubation in a humidified and temperature controlled incubator (37° C.), Cell Titer Glo (Promega) was added to the assay plates to quantify the amount of luciferase.

recombinant HIV protease = target: T1, recombinant HIV protease (Human immunodeficiency virus type 1 group M subtype B, UniProt P04585); experiment: HIV Protease Enzyme Inhibition (PI) Activity, fluorogenic enzymatic assay; type: biochemical
T1 construct: recombinant HIV protease
Description: HIV Protease Enzyme Inhibition (PI) Activity
Inhibitor potency against HIV protease can be measured using an enzymatic assay with a fluorogenic readout. To a reaction buffer containing 100 mM ammonium acetate at pH 5.3, 100 mM NaCl, 1 mM EDTA, 1 mM DTT, 0.25 mg/mL BSA and 1% DMSO are added 10 nM of recombinant HIV protease (concentration based on protein monomer) and test compound at one of various concentrations. After a 10-minute pre-incubation, the enzymatic reaction is initiated by the addition of the fluorogenic substrate (2-aminobenzoyl)Thr-Ile-Nle-(p-nitro)Phe-Gln-Arg (Bachem; Product No. H-2992) (SEQ ID NO: 1) to a final concentration of 40 μM. The total volume of the assay solution is 100 μL. The reaction is measured over 10 minutes on a Tecan Infinite M1000 plate reader using an excitation wavelength of 320 nm and a detection wavelength of 420 nm. The slopes of the progress curves are the measure of reaction rates. Reaction rates are plotted as a function of inhibitor concentration, and the data are fit with a four-parameter logistic fit using Graphpad PRISM software to yield IC50 values.

[2] = tested on: single replication cycle recombinant virus containing the protease and reverse transcriptase coding regions of HIV-1 from a patient blood sample; type: cell-based; details: for mean fold change in susceptibility: mean over the resistant panel of Table 2
From the text: Resistance testing was done by Monogram Biosciences using their proprietary PhenoSense HIV assay. This assay evaluates drug susceptibility by using a single replication cycle recombinant virus containing the protease (amino acids 1-99 plus p7/p1/p6 gag cleavage sites) and reverse transcriptase (amino acids 1-304) coding regions of HIV-1 from a patient blood sample.

[3] = tested on: HIV-1 (IIIB) in MT-4 cells; experiment: MT-4 HIV High Resolution Antiviral Assay; type: cell-based; details: EC95=(19)^1/hill coefficient x EC50
Description: as §1

in vitro = details: human, microsomes
Description: Liver Microsomal Stability Protocol
Test compounds and one control compound (verapamil) were tested in 3 different species in duplicate sets.
Reaction composition (in each incubation well) contains:
After plates were vortexed, they were centrifuged for 30 minutes to remove proteins. About 100 μL supernatant was removed to a new plate and diluted with 150 μL water. About 20 μL of the mixture was injected into LC/MS/MS system to monitor the compound's response. In vitro measured t1/2 was used to calculate Clint values.

[4] = 10 nM recombinant HIV protease, pH 5.3, 40 μM fluorogenic substrate, read-out: HIV PI IC50
[5] = Resistance mutations D30N L33F N88D L90M
[6] = Resistance mutations L10F L33F M46I I50V V82A N88D L89V
[7] = Resistance mutations L10F M46I I47V I50V I54V G73S I84V L90M
[8] = Resistance mutations L10F M46L I54V V82A 184V
[9] = Resistance mutations L10F V32I M46I I47V I50V I54L I84V
[10] = Resistance mutations L10F/L D30N I54V N88D L90M
[11] = Resistance mutations L10F/L D30N L33F I54L N88D L90M
[12] = Resistance mutations L10I I50 V82A L90M
[13] = Resistance mutations L10I L33F G48V I50L I54V/I V82A
[14] = Resistance mutations L10I L33F M46I I54V V82A I84V
[15] = Resistance mutations L10I L33F M46L G48V I54M V82A I84V L90M
[16] = Resistance mutations L10I L33F/L G48V G73S V82A
[17] = Resistance mutations L10I M46I G48V I50V V82A L90M
[18] = Resistance mutations L10I M46I I50V
[19] = Resistance mutations L10I M46L I54V V82A
[20] = Resistance mutations L10I M46L I54V V82F L90M
[21] = Resistance mutations L10I V32I L33F M46L I54L I84V L89V
[22] = Resistance mutations L10I V32I M46I I47V G48V I54M V82T L90M
[23] = Resistance mutations L10I V32I M46I I47V I50V I54L L90M
[24] = Resistance mutations L10V L33F I50L L90M
[25] = Resistance mutations L10V L33F M46I I54V V82A I84V L90M/L
[26] = Resistance mutations L10V/L M46I I50L V82A
[27] = Resistance mutations L33F M46I I50V L76V
[28] = Resistance mutations M46I L76V I84V

CC(C)(C[C@]1(c2ccc(-c3cnn(C(F)F)c3)cc2)NC(=N)N([C@H](COC(=O)NC2(C(F)F)CC2)c2ccc(Cl)c(-c3ncnn3C(F)F)c2)C1=O)C(F)(F)F [Compound 7]
pEC50 [1]: 8.11
pIC50 (recombinant HIV protease; [4]): 8.74
Fold Change in EC50 [2, 5]: 3.62
Fold Change in EC50 [2, 6]: 0.58
Fold Change in EC50 [2, 7]: 3.51
Fold Change in EC50 [2, 8]: 0.91
Fold Change in EC50 [2, 9]: 1.08
Fold Change in EC50 [2, 10]: 5.32
Fold Change in EC50 [2, 11]: 2.57
Fold Change in EC50 [2, 12]: 1.7
Fold Change in EC50 [2, 13]: 0.72
Fold Change in EC50 [2, 14]: 2.49
Fold Change in EC50 [2, 15]: 2.9
Fold Change in EC50 [2, 16]: 2.34
Fold Change in EC50 [2, 17]: 9.22
Fold Change in EC50 [2, 18]: 2.2
Fold Change in EC50 [2, 19]: 5.84
Fold Change in EC50 [2, 20]: 4.33
Fold Change in EC50 [2, 21]: 0.82
Fold Change in EC50 [2, 22]: 2.84
Fold Change in EC50 [2, 23]: 3.92
Fold Change in EC50 [2, 24]: 3.09
Fold Change in EC50 [2, 25]: 2.6
Fold Change in EC50 [2, 26]: 4.77
Fold Change in EC50 [2, 27]: 1.39
Fold Change in EC50 [2, 28]: 2.04
mean fold change in susceptibility [2]: 2.4
EC95 [3]: 17.8 nM

CC(C)(C[C@]1(c2ccc(-c3ccc(S(C)(=O)=O)c(F)c3)cc2)NC(=N)N([C@H](COC(=O)NC2(C(F)F)CC2)c2ccc(Cl)c(-c3ncnn3C(F)F)c2)C1=O)C(F)(F)F [Compound 3]
pEC50 [1]: 7.95
pIC50 (recombinant HIV protease; [4]): 8.54

CC(C)(C[C@]1(c2ccc(-c3cn(C(F)F)cn3)cc2)NC(=N)N([C@H](COC(=O)NC2(C(F)F)CC2)c2ccc(Cl)c(-c3ncnn3C(F)F)c2)C1=O)C(F)(F)F [Compound 9, (S)-2-(4-chloro-3-(1-(difluoromethyl)-1H-1,2,4-triazol-5-yl)phenyl)-2-((R)-4-(4-(1-(difluoromethyl)-1H-imidazol-4-yl)phenyl)-2-imino-5-oxo-4-(3,3,3-trifluoro-2,2-dimethylpropyl)imidazolidin-1-yl)ethyl (1-(difluoromethyl)cyclopropyl)carbamate]
pEC50 [1]: 7.58
pIC50 (recombinant HIV protease): 8.24

CC(C)(C[C@]1(c2ccc(-c3ccn(C(F)F)n3)cc2)NC(=N)N([C@H](COC(=O)NC2(C(F)F)CC2)c2ccc(Cl)c(-c3ncnn3C(F)F)c2)C1=O)C(F)(F)F [Compound 8, (S)-2-(4-chloro-3-(1-(difluoromethyl)-1H-1,2,4-triazol-5-yl)phenyl)-2-((R)-4-(4-(1-(difluoromethyl)-1H-pyrazol-3-yl)phenyl)-2-imino-5-oxo-4-(3,3,3-trifluoro-2,2-dimethylpropyl)imidazolidin-1-yl)ethyl (1-(difluoromethyl)cyclopropyl)carbamate]
pEC50 [1]: 8.08
pIC50 (recombinant HIV protease; [4]): 8.70

CC(C)(C[C@]1(c2ccc(-c3cccc(S(C)(=O)=O)c3)cc2)NC(=N)N([C@H](COC(=O)NC2(C(F)F)CC2)c2ccc(Cl)c(-c3ncnn3C(F)F)c2)C1=O)C(F)(F)F [Compound 2]
pEC50 [1]: 7.56
pIC50 (recombinant HIV protease; [4]): 8.54

COC(=O)N[C@H](C(=O)N[C@@H](Cc1ccccc1)[C@@H](O)CN(Cc1ccc(-c2ccccn2)cc1)NC(=O)[C@@H](NC(=O)OC)C(C)(C)C)C(C)(C)C [Atazanavir, methyl N-[(2S)-1-[2-[(2S,3S)-2-hydroxy-3-[[(2S)-2-(methoxycarbonylamino)-3,3-dimethylbutanoyl]amino]-4-phenylbutyl]-2-[(4-pyridin-2-ylphenyl)methyl]hydrazinyl]-3,3-dimethyl-1-oxobutan-2-yl]carbamate, reference compound]
Fold Change in EC50 [2, 5]: 4.68
Fold Change in EC50 [2, 6]: 1.25
Fold Change in EC50 [2, 7]: 19
Fold Change in EC50 [2, 8]: 73
Fold Change in EC50 [2, 9]: 5.44
Fold Change in EC50 [2, 10]: 29
Fold Change in EC50 [2, 11]: 15
Fold Change in EC50 [2, 12]: 33
Fold Change in EC50 [2, 13]: 70
Fold Change in EC50 [2, 14]: 44
Fold Change in EC50 [2, 15]: 70
Fold Change in EC50 [2, 16]: >91
Fold Change in EC50 [2, 17]: 39
Fold Change in EC50 [2, 18]: 2.39
Fold Change in EC50 [2, 19]: 9.73
Fold Change in EC50 [2, 20]: 24
Fold Change in EC50 [2, 21]: 89
Fold Change in EC50 [2, 22]: 9.49
Fold Change in EC50 [2, 23]: 25
Fold Change in EC50 [2, 24]: >91
Fold Change in EC50 [2, 25]: 9.69
Fold Change in EC50 [2, 26]: 69
Fold Change in EC50 [2, 27]: 1.84
Fold Change in EC50 [2, 28]: 1.36
mean fold change in susceptibility [2]: 17.7
half-life at 1 μM (in vitro): 26 to 107 min

CC(C)(C[C@]1(c2ccc(-c3ccc(S(C)(=O)=O)cc3)cc2)NC(=N)N([C@H](COC(=O)NC2(C(F)F)CC2)c2ccc(Cl)c(-c3ncnn3C(F)F)c2)C1=O)C(F)(F)F [Compound 1, (S)-2-(4-chloro-3-(1-(difluoromethyl)-1H-1,2,4-triazol-5-yl)phenyl)-2-((R)-2-imino-4-(4′-(methylsulfonyl)-[1,1′-biphenyl]-4-yl)-5-oxo-4-(3,3,3-trifluoro-2,2-dimethylpropyl)imidazolidin-1-yl)ethyl (1-(difluoromethyl)cyclopropyl)carbamate]
pEC50 [1]: 7.88
pIC50 (recombinant HIV protease; [4]): 8.74
EC95 [3]: 24.9 nM

CC(C)(C[C@]1(c2ccc(-c3ccc(S(C)(=O)=O)cc3F)cc2)NC(=N)N([C@H](COC(=O)NC2(C(F)F)CC2)c2ccc(Cl)c(-c3ncnn3C(F)F)c2)C1=O)C(F)(F)F [Compound 4]
pEC50 [1]: 7.95
pIC50 (recombinant HIV protease; [4]): 8.62

CC(C)(C[C@]1(c2ccc(-c3ccc(F)cc3)cc2)NC(=N)N([C@H](COC(=O)NC2(C(F)F)CC2)c2ccc(Cl)c(-c3ncnn3C(F)F)c2)C1=O)C(F)(F)F [Compound 5]
pEC50 [1]: 7.20
pIC50 (recombinant HIV protease; [4]): 8.35

CC(C)(C[C@]1(c2ccc(-c3cccc(F)c3)cc2)NC(=N)N([C@H](COC(=O)NC2(C(F)F)CC2)c2ccc(Cl)c(-c3ncnn3C(F)F)c2)C1=O)C(F)(F)F [Compound 6]
pEC50 [1]: 7.30
pIC50 (recombinant HIV protease; [4]): 8.64
